Values of other authors in patent US20100120780A1, “TREATMENTS FOR PREMATURE EJACULATION IN HUMANS” (priority 2007, published 2010).
Structures can show the parent of a compound that is named as a salt.

What was measured:
[1] = target: phosphodiesterase type 5 (PDE5) (Homo sapiens, UniProt O76074); conditions: PDE5 vs PDE6
[2] = oral administration, Viagra formulation
[3] = rats
[4] = 0.2M sodium chloride
[5] = for accumulation: multiple dose treatment with tramadol
μ-opiate receptors = μ-opiate receptors (Homo sapiens, UniProt P35372)
μ-opiate receptors, sequence (P35372 whole entry): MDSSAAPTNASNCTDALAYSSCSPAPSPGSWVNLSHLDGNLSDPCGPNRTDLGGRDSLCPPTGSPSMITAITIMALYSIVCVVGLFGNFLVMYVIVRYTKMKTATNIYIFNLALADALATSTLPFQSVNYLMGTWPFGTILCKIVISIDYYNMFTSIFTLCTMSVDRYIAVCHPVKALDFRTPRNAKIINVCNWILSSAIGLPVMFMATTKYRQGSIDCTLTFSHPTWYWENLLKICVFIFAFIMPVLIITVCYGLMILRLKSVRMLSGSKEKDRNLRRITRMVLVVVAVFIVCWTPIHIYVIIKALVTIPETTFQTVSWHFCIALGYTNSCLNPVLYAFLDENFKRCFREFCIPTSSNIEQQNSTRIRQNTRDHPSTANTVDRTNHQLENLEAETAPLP

CCCc1nn(C)c2c(=O)[nH]c(-c3cc(S(=O)(=O)N4CCN(C)CC4)ccc3OCC)nc12 [sildenafil, 1-[[3-(6,7-dihydro-1-methyl-7-oxo-3-propyl-1H-pyrazolo[4,3-d]pyrimidin-5-yl)-4-ethoxyphenyl]sulfonyl]-4-methyl piperazine]
potency for PDE5 compared to PDE6 [1]: about 10 fold
absolute bioavailability [2]: about 40%

COc1cc(CNC(=O)CCCCC=CC(C)C)ccc1O [capsaicin, 8-methyl-N-vanillyl-6-nonenamide]
time to distribution to the brain, spinal cord, liver and blood ([3]; intravenous administration): ≤ 20 min
absorption in the jejunum ([3]; oral dosing, after 3 hours): 85%

COc1ccc(C(CN(C)C)C2(O)CCCCC2)cc1 (racemic) [Venlafaxine hydrochloride, (R/S)-1-[2-(dimethylamino)-1-(4-methoxyphenyl)ethyl]cyclohexanol]
octanol:water partition coefficient [4]: 0.43

CN(C)C[C@H]1CCCC[C@]1(O)c1cccc(O)c1 [M1 derivative, O-desmethyltramadol]
accumulation [5]: approximately 2 fold
analgesic potency relative to the parent drug (relative to tramadol): at least twice

COc1cccc(C2(O)CCCCC2CN(C)C)c1 (racemic) [tramadol, (+/−)-trans (RR,SS)-2-[(di-methylamino)methyl]-1-(3-methoxyphenyl)cyclohexanol]
affinity for μ-opiate receptors, fold less than codeine (μ-opiate receptors; relative to codeine): 10 fold
affinity for μ-opiate receptors, fold less than d-propoxyphene (μ-opiate receptors; relative to d-propoxyphene): 100 fold
affinity for μ-opiate receptors compared to dextromethorphan (μ-opiate receptors; relative to dextromethorphan): equivalent
affinity for μ-opiate receptors, fold less than morphine (μ-opiate receptors; relative to morphine): 6,000 fold
accumulation [5]: approximately 2 fold
time to peak serum concentrations ([5]; oral administration): ≤ 2 h
duration of the analgesic effect (single oral dose of tramadol 100 mg): about 6 hours
